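Step 1: Grow cells in 96-well plates. Step 2: Expose to compound for 48 hours at 5 concentrations. Step 3: Interpolate endpoints linearly; if unreached, use highest concentration. Abbreviation: GI50, concentration required for 50% inhibition of growth.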 The source made the active and inactive calls. No stated cut-off is given here; in the data, active = GI50 up to about 1.1 µM and inactive = higher.
Experiments:
Test in all cases: NCI tumour cell line growth inhibition, 48 h
DLD-1 = system: DLD-1
LXFL 529 = system: LXFL 529
DMS-114 = system: DMS-114
HOP-18 = system: HOP-18
RXF 631 = system: RXF 631
DMS-273 = system: DMS-273
M19-MEL = system: M19-MEL
XF498 = system: XF498
T47D = system: T47D

## COc1ccc2[nH]c3c(C)c4c(c(C)c3c2c1)CN(C)CC4
DLD-1
  GI50: 22.6 µM (inactive)
LXFL 529
  GI50: 17 µM (inactive)
DMS-114
  GI50: 18.6 µM (inactive)
HOP-18
  GI50: 10.6 µM (inactive)
RXF 631
  GI50: 21.7 µM (inactive)
DMS-273
  GI50: 13 µM (inactive)
M19-MEL
  GI50: 17.3 µM (inactive)

## CC#CC#C/C=C1\C=CC2(OC=CC2O)O1 (stereo unspecified)
DLD-1
  GI50: 8.93 µM (inactive)
XF498
  GI50: 9.4 µM (inactive)
LXFL 529
  GI50: 6.24 µM (inactive)
DMS-114
  GI50: 7.38 µM (inactive)
HOP-18
  GI50: 4.79 µM (inactive)
DMS-273
  GI50: > 23.3 µM (inactive)
M19-MEL
  GI50: 15.3 µM (inactive)

## Cc1nc(-n2nc(-c3ccccc3)cc2-c2ccccc2)sc1C(=O)CC(=O)C(=O)Nc1ccc(O)cc1
DLD-1
  GI50: > 100 µM (inactive)
LXFL 529
  GI50: > 100 µM (inactive)
DMS-114
  GI50: > 100 µM (inactive)
HOP-18
  GI50: > 100 µM (inactive)
RXF 631
  GI50: > 100 µM (inactive)
DMS-273
  GI50: > 100 µM (inactive)

## SCc1ccc(-c2ccc(CS)cc2)cc1
DLD-1
  GI50: 17 µM (inactive)
XF498
  GI50: 20.6 µM (inactive)
LXFL 529
  GI50: 14.4 µM (inactive)
DMS-114
  GI50: 12.5 µM (inactive)
HOP-18
  GI50: 16.4 µM (inactive)
DMS-273
  GI50: 24.2 µM (inactive)
M19-MEL
  GI50: 18.6 µM (inactive)
T47D
  GI50: 19.7 µM (inactive)

## CC1(C)CC(=O)C=C(NC(=O)c2ccccc2)C1
DLD-1
  GI50: > 100 µM (inactive)
XF498
  GI50: > 100 µM (inactive)
LXFL 529
  GI50: > 100 µM (inactive)
DMS-114
  GI50: > 100 µM (inactive)
RXF 631
  GI50: > 100 µM (inactive)
DMS-273
  GI50: > 100 µM (inactive)
M19-MEL
  GI50: > 100 µM (inactive)

## Cc1cccc(C)c1NC(=O)C(=O)C(C#N)c1ccccc1Cl (stereo unspecified)
DLD-1
  GI50: > 100 µM (inactive)
XF498
  GI50: > 100 µM (inactive)
LXFL 529
  GI50: > 100 µM (inactive)
DMS-114
  GI50: > 100 µM (inactive)
HOP-18
  GI50: 91.4 µM (inactive)
DMS-273
  GI50: > 100 µM (inactive)
M19-MEL
  GI50: > 100 µM (inactive)

## Oc1ccc([Te]CCNCC[Te]c2ccc(O)cc2)cc1
DLD-1
  GI50: 23 µM (inactive)
XF498
  GI50: 5.11 µM (inactive)
LXFL 529
  GI50: 3.41 µM (inactive)
HOP-18
  GI50: 26.4 µM (inactive)
RXF 631
  GI50: 6.05 µM (inactive)
DMS-273
  GI50: 18.2 µM (inactive)
M19-MEL
  GI50: 7.29 µM (inactive)

## COc1cc2ccnc3c2c(c1OC)-c1coc(SC)c1-3
DLD-1
  GI50: 95.1 µM (inactive)
LXFL 529
  GI50: 78.7 µM (inactive)
HOP-18
  GI50: 38.6 µM (inactive)
RXF 631
  GI50: > 100 µM (inactive)
DMS-273
  GI50: 60.8 µM (inactive)
M19-MEL
  GI50: > 100 µM (inactive)

## O=C1c2ccccc2C(=O)c2c(O)c(NCCNCCO)cc(O)c21
DLD-1
  GI50: 3.13 µM (inactive)
XF498
  GI50: 6.95 µM (inactive)
LXFL 529
  GI50: 5.96 µM (inactive)
DMS-114
  GI50: 4.19 µM (inactive)
HOP-18
  GI50: 6.49 µM (inactive)
DMS-273
  GI50: 3.81 µM (inactive)
M19-MEL
  GI50: 3.62 µM (inactive)

## Clc1ccc2nc(-c3ccccc3)nc(Cl)c2c1
DLD-1
  GI50: 60.1 µM (inactive)
LXFL 529
  GI50: 52.7 µM (inactive)
DMS-114
  GI50: 39.3 µM (inactive)
RXF 631
  GI50: 29.6 µM (inactive)
DMS-273
  GI50: 55.5 µM (inactive)
M19-MEL
  GI50: 58.2 µM (inactive)

## CC(=O)O/N=C(/C)c1ccccc1O
DLD-1
  GI50: > 100 µM (inactive)
XF498
  GI50: > 100 µM (inactive)
LXFL 529
  GI50: > 100 µM (inactive)
DMS-114
  GI50: > 100 µM (inactive)
HOP-18
  GI50: > 100 µM (inactive)
DMS-273
  GI50: > 100 µM (inactive)
M19-MEL
  GI50: > 100 µM (inactive)

## COc1ccc2[nH]c3c(c2c1)CCN(C)CC3
DLD-1
  GI50: > 100 µM (inactive)
XF498
  GI50: > 100 µM (inactive)
HOP-18
  GI50: > 100 µM (inactive)
RXF 631
  GI50: > 100 µM (inactive)
DMS-273
  GI50: > 100 µM (inactive)
M19-MEL
  GI50: 57.4 µM (inactive)

## COc1ccc2cccc(C(=N)c3ccc(C)c4c3CCC4)c2c1
LXFL 529
  GI50: 4.86 µM (inactive)
DMS-114
  GI50: 7.08 µM (inactive)
HOP-18
  GI50: 0.895 µM (active)
RXF 631
  GI50: 1.37 µM (inactive)
DMS-273
  GI50: 9.4 µM (inactive)
M19-MEL
  GI50: 9.62 µM (inactive)

## COc1ccc2c(=O)cc(-c3ccc(OC)c(OC)c3OC)oc2c1
DLD-1
  GI50: 53.3 µM (inactive)
XF498
  GI50: 46.7 µM (inactive)
LXFL 529
  GI50: 40.4 µM (inactive)
DMS-114
  GI50: 76.2 µM (inactive)
RXF 631
  GI50: 97.3 µM (inactive)
M19-MEL
  GI50: 67.9 µM (inactive)
T47D
  GI50: > 100 µM (inactive)

## Nc1nc(OCc2ccccc2)c2nc[nH]c2n1 [6-O-BENZYLGUANINE]
DLD-1
  GI50: 64.6 µM (inactive)
LXFL 529
  GI50: 93.3 µM (inactive)
DMS-114
  GI50: 64 µM (inactive)
HOP-18
  GI50: 87.3 µM (inactive)
RXF 631
  GI50: 69.7 µM (inactive)
DMS-273
  GI50: 93.1 µM (inactive)
M19-MEL
  GI50: 198 µM (inactive)
